Tests used:
Hepatic lipase (HL) = biological target: T1, Hepatic lipase (HL) (Homo sapiens, UniProt P11150); assay: Hepatic lipase (HL) inhibition assay, 3H-triolein substrate; type: biochemical; settings: read-out: HL inhibition (% inh. at 50 μM)
T1 sequence (P11150 23-499): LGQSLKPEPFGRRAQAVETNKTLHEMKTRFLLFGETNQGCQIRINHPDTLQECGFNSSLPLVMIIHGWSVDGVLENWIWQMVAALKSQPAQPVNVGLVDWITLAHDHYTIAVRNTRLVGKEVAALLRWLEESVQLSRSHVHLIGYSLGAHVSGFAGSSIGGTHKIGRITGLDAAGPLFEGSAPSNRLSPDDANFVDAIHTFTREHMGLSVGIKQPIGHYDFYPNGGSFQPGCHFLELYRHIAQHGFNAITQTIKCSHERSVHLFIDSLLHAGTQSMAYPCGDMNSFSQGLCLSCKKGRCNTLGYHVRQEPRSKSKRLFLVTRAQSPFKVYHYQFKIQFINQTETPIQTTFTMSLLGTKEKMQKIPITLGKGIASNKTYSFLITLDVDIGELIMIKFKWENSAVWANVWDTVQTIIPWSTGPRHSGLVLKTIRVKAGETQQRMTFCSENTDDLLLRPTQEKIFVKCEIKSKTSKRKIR
From the text: (§1) Hepatic Lipase (HL) [classified as a triacylglycerol lipase, EC 3.1.1.3, in accordance with the Recommendations of the Nomenclature Committee of the International Union of Biochemistry and Molecular Biology (available on the World Wide Web at the following address: http://www.chem.qmw.ac.uk/iubmb/enzyme/)]
Materials. The hepatic lipase employed was obtained from Dr. Howard Wong of the University of California at Los Angeles (UCLA), USA, or produced and purified using the methods and a cell line provided by Dr. Wong's laboratory. ^3H-triolein (TO) from Amersham, Buckinghamshire, U.K., cat No. TRA191; 5-20 Ci/mmol dissolved in toluene and triolein (Sigma, Cat. No. T-1740). All other reagents are of commercial grade and obtained from various commercial sources.
50 μl TO in a 20 ml scintillation vial and evaporate with N2 for 5 minutes.
Add 1 ml 10% gum arabic and 1.25 ml Tris-Cl pH 8.5 and 2 ml MilliQ water.
Sonicate, on ice, 16 times for 30 seconds with a 30-second interval between cycles.
Add 2.5 ml of 5 M NaCl+2.5 ml BSA (10% in Milli Q, pH 8)+3.25 ml Milli Q
Total volume: 12.5 ml (for 80 reactions )
If an inhibitor is going to be used, it should be incubated with the 50 μl HL (of a 125 mU/ml solution) for 70 minutes at 25° C. A 5 μl aliquot from the incubated 50 μl is added to 150 μl assay mix+45 μl Milli Q™ water and mixed.
Incubate for exactly 30 minutes at 25° C.
Stop the reaction with Methanol:chloroform:heptane 10:9:7: 3.25 ml/vial, mix; then add 1.05 ml buffer (100 mM boric acid, 100 mM potassium carbonate pH 10.5), mix for 10 seconds per vial.
Centrifuge for 20 min/2000 rpm
Take 1 ml of the upper phase+10 ml scintillation fluid and mix by shaking by hand.
Scintillation count for 5 minutes per vial.

[1] = biological target: T2, Hormone-sensitive lipase (HSL) (Homo sapiens, UniProt Q05469); assay: Hormone-sensitive lipase (HSL) inhibition assay, 3H-labeled triolein or MOME substrate; type: biochemical; settings: read-out: HSL inhibition (IC50)
T2 sequence (Q05469 1-1076): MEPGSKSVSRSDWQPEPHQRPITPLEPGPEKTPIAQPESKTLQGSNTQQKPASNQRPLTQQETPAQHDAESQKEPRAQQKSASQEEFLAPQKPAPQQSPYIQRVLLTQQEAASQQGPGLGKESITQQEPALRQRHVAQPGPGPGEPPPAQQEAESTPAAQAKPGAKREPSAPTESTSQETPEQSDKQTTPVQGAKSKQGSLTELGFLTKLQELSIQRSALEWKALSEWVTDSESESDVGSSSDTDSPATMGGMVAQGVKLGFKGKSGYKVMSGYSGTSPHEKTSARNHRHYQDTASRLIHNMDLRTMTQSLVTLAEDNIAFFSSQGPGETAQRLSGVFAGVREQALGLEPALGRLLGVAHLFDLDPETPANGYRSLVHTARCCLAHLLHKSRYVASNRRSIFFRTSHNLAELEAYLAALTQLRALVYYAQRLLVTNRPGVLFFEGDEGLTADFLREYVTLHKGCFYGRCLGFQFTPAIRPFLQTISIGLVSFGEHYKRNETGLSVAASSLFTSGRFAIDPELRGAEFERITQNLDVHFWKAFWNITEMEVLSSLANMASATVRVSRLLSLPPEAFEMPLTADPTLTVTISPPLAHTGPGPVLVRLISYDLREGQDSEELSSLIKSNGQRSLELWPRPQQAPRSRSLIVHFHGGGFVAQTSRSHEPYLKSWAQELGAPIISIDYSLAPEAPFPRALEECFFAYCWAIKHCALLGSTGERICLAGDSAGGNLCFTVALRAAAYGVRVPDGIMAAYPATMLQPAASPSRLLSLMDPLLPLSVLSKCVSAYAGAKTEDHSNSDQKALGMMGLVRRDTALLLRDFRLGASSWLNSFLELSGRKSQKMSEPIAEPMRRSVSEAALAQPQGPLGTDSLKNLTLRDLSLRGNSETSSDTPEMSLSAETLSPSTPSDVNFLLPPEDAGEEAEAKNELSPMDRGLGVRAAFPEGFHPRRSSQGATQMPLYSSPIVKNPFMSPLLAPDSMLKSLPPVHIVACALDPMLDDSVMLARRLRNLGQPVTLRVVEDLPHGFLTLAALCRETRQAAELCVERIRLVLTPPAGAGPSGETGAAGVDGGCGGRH
From the text: as §1, with “Hormone-sensitive lipase (HSL)” for “Hepatic Lipase (HL)”
Materials. The Hormone-sensitive lipase employed was provided by Dr. Cecilia Holm of Lund University, Sweden, or produced and purified by Novo Nordisk (NN) using the reagents and protocols employed by Dr. Holm. The substrates used are: ^3H-labeled triolein (TO) from Amersham, Buckinghamshire, U.K. cat No. TRA191; 5-20 Ci/mmol dissolved in toluene, triolein (Sigma, Cat. No. T-1740) and mono-oleoyl-2-O-mono-oleylglycerol (MOME) synthesized at (NN) using the protocols provided by Dr. Cecilia Holm, Lund University, Sweden. Phosphatidyl choline (PC) and phosphatidyl inositol (PI) are from Sigma (St Luis Mo., cat. Nos. P-3556 and P-5954, respectively). All other reagents are of commercial grade and obtained from various commercial sources.
Methods. The preparation of the substrates is as follows:
TO: 30 μl PC:PI (20 mg/ml solution of PC:PI 3:1 prepared in chloroform)+128 μl cold TO+15 μl ^3H-TO
MOME: 30 μl PC:PI+100 μl cold MOME+200 μl ^3H-MOME
They are then evaporated under a gentle stream of N2 followed by 20-30 minutes in a Speedvac™ apparatus to ensure the absence of residual solvent.
The samples are prepared as follows:
Samples/controls: 78 μl PED-BSA+20 μl inhibitor (various concentrations)+2 μl HSL (undiluted 0.12 mg/ml). If no inhibitors are being tested, the reaction contains 98 μl PED-BSA+2 μl HSL.
The samples are put on ice and then sonicated as follows:
With TO as substrate, add 2 ml potassium buffer (0.1M potassium phosphate, pH 7) and then sonicate twice for 1 minute, with a 1-minute interval between cycles. Add an additional 1 ml potassium buffer and sonicate 4 times for 30 seconds, with a 30 second interval in between cycles. To finish, add 1 ml BSA 20%-in potassium buffer, mix by inversion and store on ice until use.
With MOME as substrate: add 2 ml potassium buffer and then sonicate twice for 1 minute, with a 1 minute interval between cycles. Add 1.6 ml potassium buffer and sonicate 4 times for 30 seconds, with a 30-second interval between cycles. To finish, add 0.4 ml BSA 20%-buffer, mix by inversion and store on ice until use.
The enzyme reaction is run at 37° C. The substrate mix is added to the various reactions at 10 second intervals, incubated for 30 minutes in a water bath and then stopped with 3.25 ml of a solution containing CH3OH:CHCl3:heptane (10:9:7). After the addition of 1.05 ml potassium buffer pH10.5, the sample is vortexed thoroughly and centrifuged for 20 min at 2000 r.p.m. One ml of the upper phase is added to 10 ml scintillation fluid, and mixed thoroughly by shaking.
The samples are then counted, 5 min per vial, in a scintillation counter.

Q: O=C(NN1CCc2ccccc2C1)Oc1ccccc1 [Example 1, (3,4-Dihydro-1H-isoquinolin-2-yl)-carbamic Acid Phenyl Ester] was tested. Which inhibition at 50 µM (Hepatic lipase (HL)) did it give?
A: The inhibition at 50 µM was 5%.

Q: And the IC50 [1]?
A: Its IC50 is 0.2 µM.

Source: patent US20020082254A1, “Compounds for treating disorders where a decreased level of plasma FFA is desired” (priority 2000, published 2002)
